Patent publication US5135746A, “Control of protozoal disease” (Takeda Chemical Industries, Ltd., priority 1989, dated 1992)
“And” between values parts separate entries of the source, which are not always exact repeats. Equal values may be shown once.

How the values were obtained:
[1] = Acute toxicity by oral administration to mice; conditions: mouse, in vivo
[2] = test system: Laboratory Standard Strain Eimeria tenella; assay: Anticoccidial effect in White Leghorn chicks infected with laboratory standard strain Eimeria tenella, drugs in feed for 9 days (Table 1); type: in vivo; design: Caecal Lesion: scale not given here; conditions: for OPG: day7; for Caecal Lesion: day-8
Procedure: (§1) The effect of the drugs to coccidiosis was examined using chicks. Namely, nine-day-old White Leghorn male chicks were divided into groups each of which consists of 3 chicks, and 5×10^4 sporulated oocysts per chick of laboratory standard strain Eimeria tenella were orally inoculated into the chicks in all groups except for the control group in which the chicks were not infected and not dosed with the drugs, at 24 hours after the start of dosing. Prescribed amounts of respective plant components dried and crushed and monensin sodium or salinomycin sodium were added to the basal feed (SDL No. 1: Nippon Haigo Shiryo), and continuously administered by the free ingesting method for 9 days from 24 hours before infection to 8 days after infection. The weight of each chick was measured, and the bloody dropping were observed. Further, the chicks were autopsied at day-8 after infection to examine the caecel lesion. Thus, the anticoccidial effect of the administered test drugs was determined.
Note ^1) Weight gain ratio = (Average weight gain for each test
Note ^2) The bloody feces index is indicated by the number of bloody
Note ^3) The caecal lesion is indicated by an average score when
Note ^5) The ND means "not detected".

[3] = test system: Laboratory Standard Strain Eimeria tenella (AMD); assay: Combined effect of ionophore antibiotics and Rhizophoraceae bark in infected chicks (Table 5); type: in vivo
Procedure: as §1
The combined administration effect of the ionophore antibiotics and Rhizophoraceae bark was examined, by an infection experiment method in accordance with the method in Example 1.

[4] = test system: Field Isolate Eimeria tenella (AMD); assay: Anticoccidial effect in chicks infected with field isolate Eimeria tenella (AMD) resistant against ionophore antibiotics, 30,000 oocysts per chick (Tables 2-4); type: in vivo
[5] = test system: Field Chicken Coocidia of Mixed Species; assay: Combined effect of monensin and Rhizophoraceae bark in chicks infected with field coccidia of mixed species, 10,000 oocysts per chick (Table 6); type: in vivo, mixed strain containing five or more kinds of coccidia; conditions: 80 ppm in feed
Procedure: as §1
Using the mixed strain (large size oocysts: 5%, middle size oocysts: 72%, small size oocysts: 23%) collected in the field and containing five or more kinds of coccidia, the combined administration effect of monensin and Rhizophoraceae bark against chicks infected with 10,000 oocysts per chick was examined, by an infection experiment method in accordance with the method in Example 1. In Table 6, the general intestine lesion value was obtained by converting the sum of values judged by the five steps from 0 to +4 to a value per chick, for the lesion of upper, middle and lower parts of small intestine and caecum, according to the method described in Johnson and Reid, Exp. Parasitol. 28, 30-36 (1970). Other determinations were carried out in the same manner as with Example 1.

## C=CCc1ccc(O)c(-c2cc(CC=C)ccc2O)c1 [Magnolol]
[1]
  LD50: 2200 mg/kg
[2]; 125 ppm in feed
  Mortality: 0/3
  No. of Bloody Droppings: 13.3
  Weight Gain Ratio: 62.5%
  OPG: 5.3 log
  Caecal Lesion: 4.0
[2]; 250 ppm in feed
  Mortality: 0/3
  No. of Bloody Droppings: 3.7
  Weight Gain Ratio: 89.3%
  OPG: 5.8 log
  Caecal Lesion: 4.0
[2]; 500 ppm in feed
  Mortality: 0/3
  No. of Bloody Droppings: 1.3
  Weight Gain Ratio: 94.5%
  OPG: 3.2 log
  Caecal Lesion: 3.3

## CC[C@@H](C(=O)[C@@H](C)[C@@H](O)[C@H](C)[C@@H]1O[C@@H]([C@@H](CC)C(=O)O)CC[C@@H]1C)[C@H]1O[C@]2(C=C[C@@H](O)[C@]3(CC[C@@](C)([C@H]4CC[C@](O)(CC)[C@H](C)O4)O3)O2)[C@H](C)C[C@@H]1C [Salinomycin, salinomycin sodium]
[3]; 50 ppm in feed
  Caecal Lesion: 3.6
  Mortality: 1/9
  No. of Bloody Droppings: 7.0
  Weight Gain Ratio: 62%
[4]; 50 ppm in feed
  Caecal Lesion: 3.2
  Mortality: 0/5
  No. of Bloody Droppings: 9.0
  OPG: 5.8 log
  Weight Gain Ratio: 80.3%

## C=CCc1ccc(O)c(-c2ccc(O)c(CC=C)c2)c1 [Honokiol, honokiol]
[2]; 125 ppm in feed
  Mortality: 1/3
  No. of Bloody Droppings: 13.3
  Weight Gain Ratio: 41.6%
  OPG: 5.1 log
  Caecal Lesion: 4.0
[2]; 500 ppm in feed
  Mortality: 0/3
  No. of Bloody Droppings: 1.0
  Weight Gain Ratio: 99.4%
  OPG: 4.9 log
  Caecal Lesion: 3.3

## CCC1(C2OC(C3OC(O)(CO)C(C)CC3C)CC2C)CCC(C2(C)CCC3(CC(O)C(C)C(C(C)C(OC)C(C)C(=O)O)O3)O2)O1 (stereo not shown) [Monensin, monensin sodium]
[3]; 80 ppm in feed
  Caecal Lesion: 3.2
  Mortality: 0/9
  No. of Bloody Droppings: 5.0
  Weight Gain Ratio: 88%
[4]; 80 ppm in feed
  Caecal Lesion: 4.0 and 3.8
  Mortality: 0/5
  No. of Bloody Droppings: 10.0 and 9.0
  OPG: 6.2 log and 6.1 log
  Weight Gain Ratio: 54.8% and 72.3%
[4]; 100 ppm in feed
  Caecal Lesion: 4.0
  Mortality: 0/5
  No. of Bloody Droppings: 8.0
  OPG: 6.1 log
  Weight Gain Ratio: 72.6%
[4]; 160 ppm in feed
  Mortality: 0/5
  No. of Bloody Droppings: 0
  OPG: 4.7 log
  Weight Gain Ratio: 81.5% and 86.5%
[4]; 240 ppm in feed
  Caecal Lesion: 0
  Mortality: 0/5
  No. of Bloody Droppings: 0
  Weight Gain Ratio: 46.5%
[4]; in feed
  concentration at which sufficient antiprotozoal activity is shown: ≥ 160 ppm
[2]; 40 ppm in feed
  Mortality: 1/3
  No. of Bloody Droppings: 13.3
  Weight Gain Ratio: 36.7%
  OPG: 4.5 log
  Caecal Lesion: 4.0
[2]; 60 ppm in feed
  Mortality: 0/3
  No. of Bloody Droppings: 7.3
  Weight Gain Ratio: 92.9%
  OPG: 4.6 log
  Caecal Lesion: 4.0
[2]; 80 ppm in feed
  Mortality: 0/6
  No. of Bloody Droppings: 1.0
  Weight Gain Ratio: 103.2%
  OPG: 4.3 log
  Caecal Lesion: 2.2
[2]; 120 ppm in feed
  Mortality: 0/6
  No. of Bloody Droppings: 0
  Weight Gain Ratio: 103.2%
  OPG: 3.4 log
  Caecal Lesion: 0
[5]
  Mortality: 1/6
  No. of Bloody Droppings: 6.0
  Weight Gain Ratio: 89%
[5]; general intestine lesion value
  Caecal Lesion: 5.5
